Data reported in ChEMBL document CHEMBL1201861, “Genomics of Drug Sensitity in Cancer screening data, Wellcome Trust Sanger Institute”.

Experiments:
Assay in all cases: cells
CAL-39 = assay type: functional, cell-based, Homo sapiens; details: Homo sapiens, CAL-39;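 also: cell viability assay measuring growth inhibition of CAL-39 cells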
Description: SANGER: Inhibition of human CAL-39 cell growth in a cell viability assay.

GOTO = assay type: functional, cell-based, Homo sapiens; details: Homo sapiens, GOTO;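 also: growth inhibition of GOTO cells, read out by a cell viability assay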
Description: SANGER: Inhibition of human GOTO cell growth in a cell viability assay.

COLO-680N = assay type: functional, cell-based, Homo sapiens; details: Homo sapiens, COLO-680N;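 also: cell viability assay used to measure inhibition of COLO-680N cell growth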
Description: SANGER: Inhibition of human COLO-680N cell growth in a cell viability assay.

MKN-1 = assay type: functional, cell-based, Homo sapiens; details: Homo sapiens, MKN-1;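 also: growth inhibition of human MKN1 cells, read out by a cell viability measurement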
Description: SANGER: Inhibition of human MKN1 cell growth in a cell viability assay.

HC-1 = assay type: functional, cell-based; details: Homo sapiens;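 also: growth inhibition of HC-1 cells measured by a cell viability assay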
Description: SANGER: Inhibition of human HC-1 cell growth in a cell viability assay.

T84 = assay type: functional, cell-based, Homo sapiens; details: Homo sapiens, T84;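 also: growth inhibition measured with a cell viability readout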
Description: SANGER: Inhibition of human T84 cell growth in a cell viability assay.

SW982 = assay type: functional, cell-based; details: Homo sapiens;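 also: growth inhibition of SW982 cells, read out with a cell viability assay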
Description: SANGER: Inhibition of human SW982 cell growth in a cell viability assay.

MS-1 = assay type: functional, cell-based; details: Homo sapiens;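 also: growth inhibition of MS-1 cells, read out by cell viability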
Description: SANGER: Inhibition of human MS-1 cell growth in a cell viability assay.

CHL-1 = assay type: functional, cell-based, Homo sapiens; details: Homo sapiens, CHL-1;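 also: cell growth inhibition, read out with a cell viability assay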
Description: SANGER: Inhibition of human CHL-1 cell growth in a cell viability assay.

EW-13 = assay type: functional, cell-based; details: Homo sapiens;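 also: growth inhibition of EW-13 cells, read out with a cell viability assay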
Description: SANGER: Inhibition of human EW-13 cell growth in a cell viability assay.

SBC-1 = assay type: functional, cell-based; details: Homo sapiens;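 also: cell viability assay measuring growth inhibition of the SBC-1 cell line, IC50 being the concentration that halves growth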
Description: SANGER: Inhibition of human SBC-1 cell growth in a cell viability assay.

GT3TKB = assay type: functional, cell-based, Homo sapiens; details: Homo sapiens, GT3TKB;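 also: growth inhibition of the cell line, read out with a cell viability assay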
Description: SANGER: Inhibition of human GT3TKB cell growth in a cell viability assay.

GCIY = assay type: functional, cell-based, Homo sapiens; details: Homo sapiens, GCIY;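 also: growth inhibition of the human GCIY cell line, read out by a cell viability assay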
Description: SANGER: Inhibition of human GCIY cell growth in a cell viability assay.

HPAF-II = assay type: functional, cell-based, Homo sapiens; details: Homo sapiens, HPAF-II;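 also: growth inhibition of HPAF-II cells, read out with a cell viability assay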
Description: SANGER: Inhibition of human HPAF-II cell growth in a cell viability assay.

OVCAR-5 = assay type: functional, cell-based, Homo sapiens; details: Homo sapiens, OVCAR-5;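 also: growth inhibition of human OVCAR-5 cells, read out with a cell viability assay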
Description: SANGER: Inhibition of human OVCAR-5 cell growth in a cell viability assay.

HCC1937 = assay type: functional, cell-based, Homo sapiens; details: Homo sapiens, HCC1937;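 also: growth inhibition measured with a cell viability read-out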
Description: SANGER: Inhibition of human HCC1937 cell growth in a cell viability assay.

OAW-28 = assay type: functional, cell-based, Homo sapiens; details: Homo sapiens, OAW-28;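 also: growth inhibition of OAW-28 cells, read out with a cell viability assay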
Description: SANGER: Inhibition of human OAW-28 cell growth in a cell viability assay.

A2058 = assay type: functional, cell-based; details: Homo sapiens;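 also: reduction of A2058 cell growth, read out with a viability assay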
Description: SANGER: Inhibition of human A2058 cell growth in a cell viability assay.

RS4-11 = assay type: functional, cell-based; details: Homo sapiens;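 also: growth inhibition of RS4-11 cells, read out by a cell viability assay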
Description: SANGER: Inhibition of human RS4-11 cell growth in a cell viability assay.

769-P = assay type: functional, cell-based, Homo sapiens; details: Homo sapiens, 769-P
Description: SANGER: Inhibition of human 769-P cell growth in a cell viability assay.

KYSE-270 = assay type: functional, cell-based, Homo sapiens; details: Homo sapiens, KYSE-270;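 also: cell growth inhibition measured with a viability assay in the human KYSE-270 line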
Description: SANGER: Inhibition of human KYSE-270 cell growth in a cell viability assay.

TE-6 = assay type: functional, cell-based, Homo sapiens; details: Homo sapiens, TE-6;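 also: growth inhibition of TE-6 cells, read out with a cell viability assay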
Description: SANGER: Inhibition of human TE-6 cell growth in a cell viability assay.

NCI-H1299 = assay type: functional, cell-based, Homo sapiens; details: Homo sapiens, NCI-H1299;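 also: growth inhibition of human NCI-H1299 cells, read out by a cell viability assay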
Description: SANGER: Inhibition of human NCI-H1299 cell growth in a cell viability assay.

ES3 = assay type: functional, cell-based, Homo sapiens; details: Homo sapiens, ES3;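 also: growth inhibition of ES3 cells, read out with a cell viability assay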
Description: SANGER: Inhibition of human ES3 cell growth in a cell viability assay.

U-266 = assay type: functional, cell-based; details: Homo sapiens
Description: SANGER: Inhibition of human U-266 cell growth in a cell viability assay.

PFSK-1 = assay type: functional, cell-based, Homo sapiens; details: Homo sapiens, PFSK-1;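 also: cell viability assay measuring how strongly compounds suppress growth of human PFSK-1 cells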
Description: SANGER: Inhibition of human PFSK-1 cell growth in a cell viability assay.

TE-8 = assay type: functional, cell-based, Homo sapiens; details: Homo sapiens, TE-8;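 also: growth inhibition of TE-8 cells, measured with a cell viability readout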
Description: SANGER: Inhibition of human TE-8 cell growth in a cell viability assay.

SCC-15 = assay type: functional, cell-based, Homo sapiens; details: Homo sapiens, SCC-15;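 also: growth inhibition of SCC-15 cells, read out with a cell viability assay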
Description: SANGER: Inhibition of human SCC-15 cell growth in a cell viability assay.

HCC1419 = assay type: functional, cell-based, Homo sapiens; details: Homo sapiens, HCC1419;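 also: growth inhibition of human HCC1419 cells, read out as cell viability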
Description: SANGER: Inhibition of human HCC1419 cell growth in a cell viability assay.

HuCCT-1 = assay type: functional, cell-based, Homo sapiens, HuCCT1; details: Homo sapiens, HuCCT-1;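 also: growth inhibition of HuCCT-1 cells, read out by a cell viability assay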
Description: SANGER: Inhibition of human HuCCT1 cell growth in a cell viability assay.

KP-N-YS = assay type: functional, cell-based; details: Homo sapiens;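 also: cell viability assay measuring inhibition of cell line growth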
Description: SANGER: Inhibition of human KP-N-YS cell growth in a cell viability assay.

NCI-H2452 = assay type: functional, cell-based, Homo sapiens; details: Homo sapiens, NCI-H2452;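 also: growth inhibition of NCI-H2452 cells, read out with a cell viability assay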
Description: SANGER: Inhibition of human NCI-H2452 cell growth in a cell viability assay.

GB-1 = assay type: functional, cell-based, Homo sapiens; details: Homo sapiens, GB-1;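 also: growth of GB-1 cells judged by a viability assay, IC50 marks the concentration inhibiting growth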
Description: SANGER: Inhibition of human GB-1 cell growth in a cell viability assay.

NCI-H661 = assay type: functional, cell-based, Homo sapiens; details: Homo sapiens, NCI-H661;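 also: cell viability assay read-out, IC50 being the concentration that inhibits growth of the cells by half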
Description: SANGER: Inhibition of human NCI-H661 cell growth in a cell viability assay.

KYSE-140 = assay type: functional, cell-based, Homo sapiens; details: Homo sapiens, KYSE-140;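 also: cell viability assay measuring growth inhibition in human KYSE-140 cells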
Description: SANGER: Inhibition of human KYSE-140 cell growth in a cell viability assay.

HuP-T4 = assay type: functional, cell-based, Homo sapiens; details: Homo sapiens, HuP-T4;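 also: cell viability assay measuring how much HuP-T4 cell growth is inhibited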
Description: SANGER: Inhibition of human HuP-T4 cell growth in a cell viability assay.

SBC-5 = assay type: functional, cell-based, Homo sapiens; details: Homo sapiens, SBC-5;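 also: cell viability assay read-out, IC50 is the concentration that inhibits growth of the cells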
Description: SANGER: Inhibition of human SBC-5 cell growth in a cell viability assay.

RO82-W-1 = assay type: functional, cell-based, Homo sapiens; details: Homo sapiens, RO82-W-1;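 also: growth inhibition of human RO82-W-1 cells, measured with a cell viability assay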
Description: SANGER: Inhibition of human RO82-W-1 cell growth in a cell viability assay.

MDA-MB-231 = assay type: functional, cell-based, Homo sapiens; details: Homo sapiens, MDA-MB-231
Description: SANGER: Inhibition of human MDA-MB-231 cell growth in a cell viability assay.

CAL-120 = assay type: functional, cell-based, Homo sapiens; details: Homo sapiens, CAL-120;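 also: cell growth inhibition, read out as cell viability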
Description: SANGER: Inhibition of human CAL-120 cell growth in a cell viability assay.

697 = assay type: functional, cell-based; details: Homo sapiens
Description: SANGER: Inhibition of human 697 cell growth in a cell viability assay.

MHH-NB-11 = assay type: functional, cell-based, Homo sapiens; details: Homo sapiens, MHH-NB-11;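 also: growth inhibition of human MHH-NB-11 cells, read out by a cell viability assay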
Description: SANGER: Inhibition of human MHH-NB-11 cell growth in a cell viability assay.

MMAC-SF = assay type: functional, cell-based, Homo sapiens; details: Homo sapiens, MMAC-SF;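 also: growth inhibition of human MMAC-SF cells, read out with a cell viability assay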
Description: SANGER: Inhibition of human MMAC-SF cell growth in a cell viability assay.

HCC1395 = assay type: functional, cell-based, Homo sapiens; details: Homo sapiens, HCC1395;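 also: growth inhibition of HCC1395 cells, read out by a cell viability assay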
Description: SANGER: Inhibition of human HCC1395 cell growth in a cell viability assay.

SK-N-DZ = assay type: functional, cell-based, Homo sapiens; details: Homo sapiens, SK-N-DZ;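 also: growth inhibition of the cancer cell line, read out through a viability assay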
Description: SANGER: Inhibition of human SK-N-DZ cell growth in a cell viability assay.

NCI-H1092 = assay type: functional, cell-based; details: Homo sapiens;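 also: cell growth inhibition measured with a cell viability assay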
Description: SANGER: Inhibition of human NCI-H1092 cell growth in a cell viability assay.

P12-Ichikawa = assay type: functional, cell-based; details: Homo sapiens
SCC-4 = assay type: functional, cell-based, Homo sapiens; details: Homo sapiens, SCC-4;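 also: growth inhibition of human SCC-4 cells, read out as cell viability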
Description: SANGER: Inhibition of human SCC-4 cell growth in a cell viability assay.

CAS-1 = assay type: functional, cell-based, Homo sapiens; details: Homo sapiens, CAS-1;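 also: growth inhibition of CAS-1 cells, measured with a cell viability assay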
Description: SANGER: Inhibition of human CAS-1 cell growth in a cell viability assay.

GR-ST = assay type: functional, cell-based; details: Homo sapiens
Description: SANGER: Inhibition of human GR-ST cell growth in a cell viability assay.

SKG-IIIa = assay type: functional, cell-based, Homo sapiens; details: Homo sapiens, SKG-IIIa;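 also: cell growth inhibition, read out with a cell viability assay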
Description: SANGER: Inhibition of human SKG-IIIa cell growth in a cell viability assay.

NCI-N87 = assay type: functional, cell-based, Homo sapiens; details: Homo sapiens, NCI-N87;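 also: growth inhibition of human NCI-N87 cells, read out with a cell viability assay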
Description: SANGER: Inhibition of human NCI-N87 cell growth in a cell viability assay.

Structure (SMILES): CN(Cc1cnc2nc(N)nc(N)c2n1)c1ccc(C(=O)N[C@@H](CCC(=O)O)C(=O)O)cc1 [METHOTREXATE]
- IC50 (CAL-39): > 200 nM
- IC50 (GOTO): > 200 nM
- IC50 (COLO-680N): > 200 nM
- IC50 (MKN-1): > 200 nM
- IC50 (HC-1): 69.6 nM
- IC50 (T84): > 200 nM
- IC50 (SW982): > 200 nM
- IC50 (MS-1): 45.3 nM
- IC50 (CHL-1): > 200 nM
- IC50 (EW-13): 72.3 nM
- IC50 (SBC-1): > 200 nM
- IC50 (GT3TKB): > 200 nM
- IC50 (GCIY): > 200 nM
- IC50 (HPAF-II): > 200 nM
- IC50 (OVCAR-5): > 200 nM
- IC50 (HCC1937): > 200 nM
- IC50 (OAW-28): > 200 nM
- IC50 (A2058): > 200 nM
- IC50 (RS4-11): 7.05 nM
- IC50 (769-P): 45.3 nM
- IC50 (KYSE-270): 52.1 nM
- IC50 (TE-6): > 200 nM
- IC50 (NCI-H1299): > 200 nM
- IC50 (ES3): > 200 nM
- IC50 (U-266): > 200 nM
- IC50 (PFSK-1): > 200 nM
- IC50 (TE-8): > 200 nM
- IC50 (SCC-15): > 200 nM
- IC50 (HCC1419): > 200 nM
- IC50 (HuCCT-1): > 200 nM
- IC50 (KP-N-YS): > 200 nM
- IC50 (NCI-H2452): > 200 nM
- IC50 (GB-1): > 200 nM
- IC50 (NCI-H661): > 200 nM
- IC50 (KYSE-140): > 200 nM
- IC50 (HuP-T4): > 200 nM
- IC50 (SBC-5): 69.4 nM
- IC50 (RO82-W-1): > 200 nM
- IC50 (MDA-MB-231): > 200 nM
- IC50 (CAL-120): > 200 nM
- IC50 697: 12.6 nM
- IC50 (MHH-NB-11): > 200 nM
- IC50 (MMAC-SF): > 200 nM
- IC50 (HCC1395): > 200 nM
- IC50 (SK-N-DZ): > 200 nM
- IC50 (NCI-H1092): > 200 nM
- IC50 (P12-Ichikawa): 41.3 nM
- IC50 (SCC-4): > 200 nM
- IC50 (CAS-1): > 200 nM
- IC50 (GR-ST): 36.3 nM
- IC50 (SKG-IIIa): > 200 nM
- IC50 (NCI-N87): > 200 nM

Structure (SMILES): O=C(c1cc(Cc2n[nH]c(=O)c3ccccc23)ccc1F)N1CCN(C(=O)C2CC2)CC1 [OLAPARIB]
- IC50 (CAL-39): > 5000 nM
- IC50 (GOTO): > 5000 nM
- IC50 (COLO-680N): > 5000 nM
- IC50 (MKN-1): > 5000 nM
- IC50 (HC-1): > 5000 nM
- IC50 (T84): > 5000 nM
- IC50 (SW982): > 5000 nM
- IC50 (MS-1): > 5000 nM
- IC50 (CHL-1): > 5000 nM
- IC50 (EW-13): > 5000 nM
- IC50 (SBC-1): 4810 nM
- IC50 (GT3TKB): > 5000 nM
- IC50 (GCIY): > 5000 nM
- IC50 (HPAF-II): > 5000 nM
- IC50 (OVCAR-5): > 5000 nM
- IC50 (HCC1937): > 5000 nM
- IC50 (OAW-28): > 5000 nM
- IC50 (A2058): > 5000 nM
- IC50 (RS4-11): > 5000 nM
- IC50 (769-P): > 5000 nM
- IC50 (KYSE-270): > 5000 nM
- IC50 (TE-6): > 5000 nM
- IC50 (NCI-H1299): > 5000 nM
- IC50 (ES3): > 5000 nM
- IC50 (U-266): > 5000 nM
- IC50 (PFSK-1): > 5000 nM
- IC50 (TE-8): > 5000 nM
- IC50 (SCC-15): > 5000 nM
- IC50 (HCC1419): > 5000 nM
- IC50 (HuCCT-1): > 5000 nM
- IC50 (KP-N-YS): > 5000 nM
- IC50 (NCI-H2452): > 5000 nM
- IC50 (GB-1): > 5000 nM
- IC50 (NCI-H661): > 5000 nM
- IC50 (KYSE-140): > 5000 nM
- IC50 (HuP-T4): > 5000 nM
- IC50 (SBC-5): > 5000 nM
- IC50 (RO82-W-1): > 5000 nM
- IC50 (MDA-MB-231): > 5000 nM
- IC50 (CAL-120): > 5000 nM
- IC50 697: 2840 nM
- IC50 (MHH-NB-11): > 5000 nM
- IC50 (MMAC-SF): > 5000 nM
- IC50 (HCC1395): > 5000 nM
- IC50 (SK-N-DZ): > 5000 nM
- IC50 (NCI-H1092): > 5000 nM
- IC50 (P12-Ichikawa): > 5000 nM
- IC50 (SCC-4): > 5000 nM
- IC50 (CAS-1): > 5000 nM
- IC50 (GR-ST): > 5000 nM
- IC50 (SKG-IIIa): > 5000 nM
- IC50 (NCI-N87): > 5000 nM

Structure (SMILES): C=CCc1cccc(/C=N/NC(=O)CN2CCN(Cc3ccccc3)CC2)c1O [PAC-1]
- IC50 (CAL-39): > 2560 nM
- IC50 (GOTO): > 2560 nM
- IC50 (COLO-680N): > 2560 nM
- IC50 (MKN-1): > 2560 nM
- IC50 (HC-1): 1860 nM
- IC50 (T84): 1030 nM
- IC50 (SW982): > 2560 nM
- IC50 (MS-1): > 2560 nM
- IC50 (CHL-1): > 2560 nM
- IC50 (EW-13): > 2560 nM
- IC50 (SBC-1): > 2560 nM
- IC50 (GT3TKB): > 2560 nM
- IC50 (GCIY): > 2560 nM
- IC50 (HPAF-II): > 2560 nM
- IC50 (OVCAR-5): > 2560 nM
- IC50 (HCC1937): > 2560 nM
- IC50 (OAW-28): > 2560 nM
- IC50 (A2058): > 2560 nM
- IC50 (RS4-11): > 2560 nM
- IC50 (769-P): > 2560 nM
- IC50 (KYSE-270): 2460 nM
- IC50 (TE-6): > 2560 nM
- IC50 (NCI-H1299): > 2560 nM
- IC50 (ES3): > 2560 nM
- IC50 (U-266): > 2560 nM
- IC50 (PFSK-1): > 2560 nM
- IC50 (TE-8): > 2560 nM
- IC50 (SCC-15): > 2560 nM
- IC50 (HCC1419): > 2560 nM
- IC50 (HuCCT-1): 1460 nM
- IC50 (KP-N-YS): > 2560 nM
- IC50 (NCI-H2452): > 2560 nM
- IC50 (GB-1): > 2560 nM
- IC50 (NCI-H661): > 2560 nM
- IC50 (KYSE-140): > 2560 nM
- IC50 (HuP-T4): > 2560 nM
- IC50 (SBC-5): > 2560 nM
- IC50 (RO82-W-1): > 2560 nM
- IC50 (MDA-MB-231): > 2560 nM
- IC50 (CAL-120): > 2560 nM
- IC50 697: 910 nM
- IC50 (MHH-NB-11): > 2560 nM
- IC50 (MMAC-SF): > 2560 nM
- IC50 (HCC1395): > 2560 nM
- IC50 (SK-N-DZ): > 2560 nM
- IC50 (NCI-H1092): > 2560 nM
- IC50 (P12-Ichikawa): > 2560 nM
- IC50 (SCC-4): > 2560 nM
- IC50 (CAS-1): > 2560 nM
- IC50 (GR-ST): > 2560 nM
- IC50 (SKG-IIIa): > 2560 nM
- IC50 (NCI-N87): > 2560 nM
